Assay results as given in PubChem BioAssay AID330 (DTP/NCI, 2004).
“And” between values parts separate entries of the source, which are not always exact repeats. Equal values may be shown once. Toxic doses and inconclusive results are not listed. Peptide text beside a SMILES is read from it. * marks the point of attachment. Cbz = O=C(OCc1ccccc1)*

Tested on: P388 leukemia ip, CD2F1 mice, survival T/C
Test: NCI In Vivo Anticancer Drug Screen. Data for tumor model P388 Leukemia (intraperitoneal) in CD2F1 (CDF1) mice
Settings: endpoint: median survival time, higher = longer survival
Outline: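 Mice carrying the transplanted tumor received test compound or vehicle. Survival was recorded in each group, and the value is the treated-group measurement divided by that of the vehicle-treated control group.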

[1] = dose: 60.0 mg/kg/injection, schedule: Q01DX005 (ip), vehicle: saline with Tween-80
[2] = dose: 120.0 mg/kg/injection, schedule: Q01DX005 (ip), vehicle: saline with Tween-80
[3] = dose: 240.0 mg/kg/injection, schedule: Q01DX005 (ip), vehicle: saline with Tween-80
[4] = dose: 50.0 mg/kg/injection, schedule: Q01DX005 (ip), vehicle: Klucel (hydroxypropylcellulose) (HPC)
[5] = dose: 100.0 mg/kg/injection, schedule: Q01DX005 (ip), vehicle: Klucel (hydroxypropylcellulose) (HPC)
[6] = dose: 200.0 mg/kg/injection, schedule: Q01DX005 (ip), vehicle: Klucel (hydroxypropylcellulose) (HPC)
[7] = dose: 50.0 mg/kg/injection, schedule: Q01DX009 (ip), vehicle: saline
[8] = dose: 100.0 mg/kg/injection, schedule: Q01DX009 (ip), vehicle: saline
[9] = dose: 200.0 mg/kg/injection, schedule: Q01DX009 (ip), vehicle: saline
[10] = dose: 60.0 mg/kg/injection, schedule: Q01DX005 (ip), vehicle: saline
[11] = dose: 25.0 mg/kg/injection, schedule: Q01DX009 (ip), vehicle: saline with Tween-80
[12] = dose: 50.0 mg/kg/injection, schedule: Q01DX009 (ip), vehicle: saline with Tween-80
[13] = dose: 100.0 mg/kg/injection, schedule: Q01DX009 (ip), vehicle: saline with Tween-80
[14] = dose: 50.0 mg/kg/injection, schedule: Q01DX005 (ip), vehicle: saline
[15] = dose: 100.0 mg/kg/injection, schedule: Q01DX005 (ip), vehicle: saline
[16] = dose: 50.0 mg/kg/injection, schedule: Q01DX005 (ip), vehicle: saline with Tween-80
[17] = dose: 100.0 mg/kg/injection, schedule: Q01DX005 (ip), vehicle: saline with Tween-80
[18] = dose: 200.0 mg/kg/injection, schedule: Q01DX005 (ip), vehicle: saline with Tween-80
[19] = dose: 200.0 mg/kg/injection, schedule: Q01DX009 (ip), vehicle: saline with Tween-80

CN1C(=O)C23CC4=CC=CC(O)C4N2C(=O)C1(CO)SS3 (configuration not stated) was tested, and the T/C (dose: 0.62 mg/kg/injection, schedule: Q04DX002 (ip), vehicle: saline with Tween-80) was 103 % of control, the T/C (dose: 1.25 mg/kg/injection, schedule: Q04DX002 (ip), vehicle: saline with Tween-80) was 104 % of control and the T/C (dose: 2.5 mg/kg/injection, schedule: Q04DX002 (ip), vehicle: saline with Tween-80) was 119 % of control.

With CCC(c1ccccc1)(c1ccccc1)c1ccccc1 the T/C (dose: 100.0 mg/kg/injection, schedule: Q04DX003 (ip), vehicle: saline with Tween-80) was 98 % of control, the T/C (dose: 200.0 mg/kg/injection, schedule: Q04DX003 (ip), vehicle: saline with Tween-80) was 100 % of control and the T/C (dose: 400.0 mg/kg/injection, schedule: Q04DX003 (ip), vehicle: saline with Tween-80) was 94 % of control.

With Cc1ccc2c(c1)C1(SC(C)C(=O)N1c1ccc(I)cc1)C(=O)N2 (configuration not stated) the T/C [1] was 103 % of control, the T/C [2] was 94 % of control and the T/C [3] was 91 % of control.

CC(C)C(NC(=O)C(Cc1cnc[nH]1)NC(=O)OCc1ccccc1)C(=O)O (stereo not drawn) (Cbz-His-Val-OH; configuration not given here) was tested, and the T/C [4] was 101 % of control, the T/C [5] was 96 % of control and the T/C [6] was 100 % of control.

For [O-][n+]1cccc(O)c1, the T/C (dose: 25.0 mg/kg/injection, schedule: Q01DX009 (ip), vehicle: saline) was 100 % of control and 102 % of control, the T/C [7] was 102 % of control and 108 % of control and the T/C [8] was 102 % of control and 92 % of control. The T/C [9] was 100 % of control and 108 % of control, the T/C (dose: 400.0 mg/kg/injection, schedule: Q01DX009 (ip), vehicle: saline) was 103 % of control and 97 % of control and the T/C (dose: 600.0 mg/kg/injection, schedule: Q01DX009 (ip), vehicle: saline) was 108 % of control and 117 % of control.

For CC(CN(C)C)C(=O)/C=C/c1ccc(F)cc1 (configuration not stated), the T/C (dose: 30.0 mg/kg/injection, schedule: Q01DX005 (ip), vehicle: saline) was 100 % of control and the T/C [10] was 101 % of control and 110 % of control.

In the case of Oc1cc(CN2CCCC2)c(O)cc1CN1CCCC1, the T/C [11] is reported as 103 % of control and 111 % of control, the T/C [12] is reported as 103 % of control and 111 % of control and the T/C [13] is reported as 110 % of control and 111 % of control.

With CCn1c(=O)c2c(N(CCO)CCO)snc2n(CC)c1=O the T/C (dose: 100.0 mg/kg/injection, schedule: Q04DX002 (ip), vehicle: suspension in saline) was 104 % of control, the T/C (dose: 200.0 mg/kg/injection, schedule: Q04DX002 (ip), vehicle: suspension in saline) was 101 % of control and the T/C (dose: 400.0 mg/kg/injection, schedule: Q04DX002 (ip), vehicle: suspension in saline) was 102 % of control.

For Nc1cc(N)c(N=Nc2cccc3c(S(=O)(=O)O)cccc23)cc1N=Nc1cc([N+](=O)[O-])ccc1O, the T/C [7] was 109 % of control, the T/C [8] was 109 % of control and the T/C [9] was 96 % of control.

For COc1cc(C(O)CCBr)c(OC)cc1C (configuration not stated), the T/C [1] was 100 % of control, the T/C [2] was 100 % of control and the T/C [3] was 95 % of control.

c1ccc(CON(CCc2ccncc2)CCc2ccncc2)cc1 was tested, and the T/C [14] was 97 % of control, the T/C [15] was 103 % of control and the T/C (dose: 200.0 mg/kg/injection, schedule: Q01DX005 (ip), vehicle: saline) was 101 % of control.

O=P(OCC(F)(F)F)(c1ccccc1)c1ccccc1 was tested, and the T/C [16] was 108 % of control, the T/C [17] was 104 % of control and the T/C [18] was 112 % of control.

In the case of COc1ccc(-c2sc(-c3ccccc3)nc2O)cc1, the T/C [12] is reported as 89 % of control, the T/C [13] is reported as 89 % of control and the T/C [19] is reported as 92 % of control.

COC(=O)CSSCc1ccccc1 was tested, and the T/C (dose: 50.0 mg/kg/injection, schedule: Q01DX005 (ip), vehicle: suspension in saline) was 100 % of control, the T/C (dose: 100.0 mg/kg/injection, schedule: Q01DX005 (ip), vehicle: suspension in saline) was 107 % of control and the T/C (dose: 200.0 mg/kg/injection, schedule: Q01DX005 (ip), vehicle: suspension in saline) was 107 % of control.

In the case of Fc1ccccc1C(Nc1cnccn1)Nc1cnccn1, the T/C (dose: 12.5 mg/kg/injection, schedule: Q01DX005 (ip), vehicle: saline with Tween-80) is reported as 96 % of control, the T/C (dose: 25.0 mg/kg/injection, schedule: Q01DX005 (ip), vehicle: saline with Tween-80) is reported as 102 % of control and the T/C [16] is reported as 102 % of control and 109 % of control. For the same molecule, the T/C [17] was 109 % of control and the T/C [18] was 111 % of control.

In the case of C=C=CC(C)(O)c1ccc(-c2ccccc2)cc1 (configuration not stated), the T/C [4] is reported as 97 % of control, the T/C [5] is reported as 100 % of control and the T/C [6] is reported as 104 % of control.

CCOC(=O)C1=C(O)C(C)(c2ccc(O)cc2O)N=C1c1ccccc1 (configuration not stated) was tested, and the T/C [4] was 95 % of control, the T/C [5] was 96 % of control and the T/C [6] was 89 % of control.

With CNC(=O)OCC1=C(COC(=O)NC)C2OC1C(C(=O)OC)=C2C(=O)OC the T/C (dose: 3.13 mg/kg/injection, schedule: Q01DX009 (ip), vehicle: distilled water + Tween-80) was 91 % of control and the T/C (dose: 12.5 mg/kg/injection, schedule: Q01DX009 (ip), vehicle: distilled water + Tween-80) was 94 % of control.

CC[n+]1ccc(C(=O)NN)cc1 was tested, and the T/C (dose: 12.5 mg/kg/injection, schedule: Q04DX002 (ip), vehicle: saline with Tween-80) was 97 % of control, the T/C (dose: 25.0 mg/kg/injection, schedule: Q04DX002 (ip), vehicle: saline with Tween-80) was 99 % of control and the T/C (dose: 50.0 mg/kg/injection, schedule: Q04DX002 (ip), vehicle: saline with Tween-80) was 105 % of control.

In the case of O=c1cc(-c2ccccc2)[nH]c2c1CCCC2, the T/C [13] is reported as 116 % of control and the T/C (dose: 400.0 mg/kg/injection, schedule: Q01DX009 (ip), vehicle: saline with Tween-80) is reported as 176 % of control and 186 % of control.

In the case of CC(=O)OCC1OC(c2ccccc2)C/C(=N/O)C1OC(C)=O (configuration not stated), the T/C [4] is reported as 96 % of control, the T/C [5] is reported as 93 % of control and the T/C [6] is reported as 94 % of control.

CCCCCN(CCCCC)CCCCC was tested, and the T/C [11] was 86 % of control, the T/C [12] was 98 % of control and the T/C [13] was 101 % of control. For the same molecule, the T/C [19] was 88 % of control.

CN(C)c1nc(N(C)C)n2c(-c3ccccc3[N+](=O)[O-])nnc2n1 was tested, and the T/C [12] was 99 % of control, the T/C [13] was 102 % of control and the T/C [19] was 99 % of control.

With COC(=O)c1nc(N)nc(C(=O)OC)c1C(=O)c1ccccn1 the T/C (dose: 60.0 mg/kg/injection, schedule: Q01DX005 (ip), vehicle: Klucel (hydroxypropylcellulose) (HPC)) was 101 % of control and the T/C (dose: 120.0 mg/kg/injection, schedule: Q01DX005 (ip), vehicle: Klucel (hydroxypropylcellulose) (HPC)) was 99 % of control.

For CO[C@@]12[C@@H]3N[C@@H]3CN1C1=C(C(=O)C(NCC3CCCO3)=C(C)C1=O)[C@@H]2COC(N)=O (some centres not stated), the T/C (dose: 1.56 mg/kg/injection, schedule: Q01DX005 (ip), vehicle: distilled water + Tween-80) was 155 % of control, the T/C (dose: 3.12 mg/kg/injection, schedule: Q01DX005 (ip), vehicle: distilled water + Tween-80) was 194 % of control and the T/C (dose: 6.25 mg/kg/injection, schedule: Q01DX005 (ip), vehicle: distilled water + Tween-80) was 198 % of control and 241 % of control. The T/C (dose: 12.5 mg/kg/injection, schedule: Q01DX001 (ip), vehicle: distilled water + Tween-80) was 158 % of control, the T/C (dose: 12.5 mg/kg/injection, schedule: Q01DX005 (ip), vehicle: distilled water + Tween-80) was 223 % of control and 225 % of control and the T/C (dose: 25.0 mg/kg/injection, schedule: Q01DX001 (ip), vehicle: distilled water + Tween-80) was 165 % of control. For the same molecule, the T/C (dose: 25.0 mg/kg/injection, schedule: Q01DX005 (ip), vehicle: distilled water + Tween-80) was 100 % of control and 207 % of control and the T/C (dose: 50.0 mg/kg/injection, schedule: Q01DX001 (ip), vehicle: distilled water + Tween-80) was 203 % of control.

For CCOP(=O)(NCCCOC)OCC, the T/C (dose: 25.0 mg/kg/injection, schedule: Q01DX005 (ip), vehicle: saline) was 97 % of control, the T/C [14] was 100 % of control and the T/C [15] was 99 % of control.

COCC1OCCCO1 was tested, and the T/C [10] was 102 % of control, the T/C (dose: 120.0 mg/kg/injection, schedule: Q01DX005 (ip), vehicle: saline) was 98 % of control and the T/C (dose: 240.0 mg/kg/injection, schedule: Q01DX005 (ip), vehicle: saline) was 97 % of control.

O=C1C(=O)C2CC3(CC1N2Cc1ccccc1)OCCO3 was tested, and the T/C (dose: 8.75 mg/kg/injection, schedule: Q01DX005 (ip), vehicle: Klucel (hydroxypropylcellulose) (HPC)) was 109 % of control, the T/C (dose: 17.5 mg/kg/injection, schedule: Q01DX005 (ip), vehicle: Klucel (hydroxypropylcellulose) (HPC)) was 104 % of control and the T/C (dose: 35.0 mg/kg/injection, schedule: Q01DX005 (ip), vehicle: Klucel (hydroxypropylcellulose) (HPC)) was 110 % of control.

O=C(NO)C1(Br)CCCCC1Br (configuration not stated) was tested, and the T/C (dose: 100.0 mg/kg/injection, schedule: Q01DX001 (ip), vehicle: Klucel (hydroxypropylcellulose) (HPC)) was 91 % of control.
